Test results published in article PMC13576449, “Small-Molecule Activators of PRMT1: Discovery, SAR Analyses, and Proapoptotic Effects in Pancreatic Cancer Cells” (Journal of Medicinal Chemistry, 2026).

How the values were obtained:
[1] = system: ADMA in PANC-1 xenograft tissues; assay: Immunofluorescence staining of ADMA in xenograft tumor tissue; format: in vivo, mouse; conditions: after 2 weeks treatment, compared to PBS or gemcitabine alone
Experimental: 6 Effect of small-molecule modulators on gemcitabine-induced apoptosis and tumor growth of PDAC cells. […] After 2 h, gemcitabine (GEM) was added at increasing concentrations (10 and 25 nM) or not (−) for another incubation of 72 h. Subsequently, the luminescence-based caspase3/7 assay was performed. The activity of caspase 3/7 in treated cells was normalized to the activity measured in untreated cells (dark gray bar), which was set to 1 (mean SD, n = 6 for PANC-1 and n = 4 for PaTu8988T; *: p ≤ 0.05, **: p ≤ 0.01, ***: p ≤ 0.001, using the student t-test). […] After 24 h, gemcitabine (GEM, 1 μM) was added (+) or not (−) for another incubation of 48 h. Subsequently, the apoptotic cell fraction was quantified in % by flow cytometry using FITC-labeled Annexin V (AV) and propidium iodide (PI) staining (in B: mean ± SD, n = 6 for PANC-1 and n = 5 for PaTu8988T; **: p ≤ 0.01, ***: p ≤ 0.001, ****: p ≤ 0.0001, using the student t-test). […] Tumor volumes were measured every second day using a digital caliper. […]
For antigen retrieval, tissue sections were steam-heated for 35 min in citrate buffer (pH 6.0), cooled down to room temperature, and then washed in PBS. […] Fluorescence images were acquired using the Confocal Laser Scanning microscope Leica SP8i and analyzed with IMARIS 9.9.0 (Bitplane-Oxford Instruments, Abingdon, GB) using the Cell module.

[2] = system: PaTu8988T cells; assay: CaspaseGlo 3/7 apoptosis assay, PaTu8988T; format: cell-based, human; conditions: 72 h
Experimental: 6 Effect of small-molecule modulators on gemcitabine-induced apoptosis and tumor growth of PDAC cells. […] After 2 h, gemcitabine (GEM) was added at increasing concentrations (10 and 25 nM) or not (−) for another incubation of 72 h. Subsequently, the luminescence-based caspase3/7 assay was performed. The activity of caspase 3/7 in treated cells was normalized to the activity measured in untreated cells (dark gray bar), which was set to 1 (mean SD, n = 6 for PANC-1 and n = 4 for PaTu8988T; *: p ≤ 0.05, **: p ≤ 0.01, ***: p ≤ 0.001, using the student t-test). […] After 24 h, gemcitabine (GEM, 1 μM) was added (+) or not (−) for another incubation of 48 h. Subsequently, the apoptotic cell fraction was quantified in % by flow cytometry using FITC-labeled Annexin V (AV) and propidium iodide (PI) staining (in B: mean ± SD, n = 6 for PANC-1 and n = 5 for PaTu8988T; **: p ≤ 0.01, ***: p ≤ 0.001, ****: p ≤ 0.0001, using the student t-test). […] Viable cells are AV/PI double-negative (AV–/PI–, lower left quadrant, Q4), early apoptotic cells are AV single-positive (AV+/PI– upper left quadrant, Q1), late apoptotic cells are AV/PI double-positive (AV+/PI+, upper right quadrant, Q2), and necrotic cells are PI single-positive (AV–/PI+, lower right quadrant, Q3). The sum of early and late apoptotic cell numbers ([…] in %) is indicated in red. D-G: The workflow of the PDAC xenograft experiments in mice is depicted in D. PANC-1 cells (2 × 10^6 cells/mouse) were subcutaneously (s.c.) injected in the right flank of female athymic nude mice. Small tumor nodules appeared 6 days post-engraftment. […] Tumor volumes were measured every second day using a digital caliper. […] At the end of the 2 weeks, mice were sacrificed and tumors were dissected (F).
For quantification of apoptosis using the CaspaseGlo 3/7 assay (Promega), PANC-1 and PaTu8988T cells were seeded in triplicates in white 96-well plate (5 × 10^3 cells/well) and cultured in the absence or presence of compounds. After 2 h, as soon as the cells had settled, gemcitabine was added or not, and cells were incubated for another 72 h. Subsequently, the caspase3/7 activity was measured using the luminescence-based CaspaseGLO-3/7 assay (Promega). To this end, the CaspaseGlo reagent was subsequently added to the cells at a 1:1 ratio and incubated at room temperature and under agitation for 30 min protected from light. The luminescence measurements were carried out using a microplate reader (Mithras LB 940, Berthold).

CN(C)Cc1cccc(CN/C=C2\C(=O)NC(=O)c3ccccc32)c1.Cl [TR-07, (Z)-1-[3-({[(1,3-Dioxo-2,3-dihydroisoquinolin-4(1H)-lidene)methyl]amino}methyl)phenyl]-N,N-dimethylmethanaminium chloride]
mean intensity ADMA levels in PANC-1 xenografts (IF staining) [1]: elevated mean intensity ADMA levels
apoptosis, caspase 3/7 activity, single agent ([2]; TR-07 10 μM or gemcitabine 10 and 25 nM): did not significantly induce apoptosis
gemcitabine-induced apoptosis, caspase 3/7 activity, co-treatment ([2]; compound 10 μM, after 2 h gemcitabine 10 and 25 nM): further significantly enhanced
